Test results reported in patent publication US8685970B2, “Quinolines and related analogs as sirtuin modulators” (GlaxoSmithKline, LLC, priority 2008, dated 2014).

The compounds below were run against T1, SIRT1 (Homo sapiens, UniProt Q96EB6) (assay: Mass spectrometry based SIRT1 deacetylation assay (activation)). Details: 10 nM SIRT1, 0.5 μM peptide substrate, 120 μM βNAD+, 25 min at 25° C.
T1 sequence (Q96EB6 1-747): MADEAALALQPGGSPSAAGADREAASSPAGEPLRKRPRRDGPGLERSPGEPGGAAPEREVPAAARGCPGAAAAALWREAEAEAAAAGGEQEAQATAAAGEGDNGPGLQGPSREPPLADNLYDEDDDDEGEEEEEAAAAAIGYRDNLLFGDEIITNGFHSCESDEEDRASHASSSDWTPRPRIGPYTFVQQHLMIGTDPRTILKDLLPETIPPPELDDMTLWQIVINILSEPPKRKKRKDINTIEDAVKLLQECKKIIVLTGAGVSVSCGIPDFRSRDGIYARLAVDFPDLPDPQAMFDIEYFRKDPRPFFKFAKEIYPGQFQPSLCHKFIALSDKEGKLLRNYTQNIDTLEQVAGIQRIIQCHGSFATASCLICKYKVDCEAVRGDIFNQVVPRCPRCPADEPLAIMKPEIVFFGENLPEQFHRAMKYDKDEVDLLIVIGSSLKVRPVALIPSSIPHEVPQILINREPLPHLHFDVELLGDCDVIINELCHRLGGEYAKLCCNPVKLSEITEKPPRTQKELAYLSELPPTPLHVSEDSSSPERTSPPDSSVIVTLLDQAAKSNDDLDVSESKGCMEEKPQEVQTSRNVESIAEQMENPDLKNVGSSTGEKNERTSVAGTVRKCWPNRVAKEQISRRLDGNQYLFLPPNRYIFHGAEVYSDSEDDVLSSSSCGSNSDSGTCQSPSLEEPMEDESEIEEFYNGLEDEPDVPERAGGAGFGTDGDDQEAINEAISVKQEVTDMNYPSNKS
Format: biochemical
Summary of the method: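 Activation reported as EC1.5, the compound concentration producing 150% of DMSO-control deacetylation, plus maximum fold activation. Readout is mass-spectrometric ratio of deacetylated to acetylated p53-based peptide (0.5 μM) after 25 min, 25 °C, with 120 μM βNAD+ and 10 nM His-tagged human SIRT1, pH 8.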
`O=C(Nc1cccc2ccc(-c3ccccc3O)nc12)c1cscn1` [Compound 174] was tested, and the “% Fold Act. (percent maximum fold activation)” value was “A (Fold activation >200%)” and the “EC1.5 (concentration of test compound that results in 150% activation of SIRT1)” value was “B (EC1.5 1-25 uM)”.
`O=C(NCc1cccnc1)c1cccc2ccc(-c3cccc(OC4CCNCC4)c3)nc12` [Compound 95] was tested, and the “% Fold Act. (percent maximum fold activation)” value was “A (Fold activation >200%)” and the “EC1.5 (concentration of test compound that results in 150% activation of SIRT1)” value was “B (EC1.5 1-25 uM)”.
For `O=C(Nc1nccs1)c1cccc2ccc(-c3cccc(OC4CCNCC4)c3)nc12` [Compound 131], the “% Fold Act. (percent maximum fold activation)” value was “A (Fold activation >200%)” and the “EC1.5 (concentration of test compound that results in 150% activation of SIRT1)” value was “A (EC1.5<1.0 uM)”.
In the case of `O=C(Nc1nccs1)c1cccc2cnc(-c3cccc(C(F)(F)F)c3)nc12` [Compound 270], the “EC1.5 (concentration of test compound that results in 150% activation of SIRT1)” value is reported as “C (EC1.5>25 uM)”.
With `Fc1ccc(-c2ccc3cccc(NCc4cccnc4)c3n2)cc1C(F)(F)F` [Compound 166] the “EC1.5 (concentration of test compound that results in 150% activation of SIRT1)” value was “C (EC1.5>25 uM)”.
For `O=C(NC1CCCC1)c1cccc2ccc(-c3cccc(OC4CCNCC4)c3)nc12` [Compound 94], the “% Fold Act. (percent maximum fold activation)” value was “A (Fold activation >200%)” and the “EC1.5 (concentration of test compound that results in 150% activation of SIRT1)” value was “B (EC1.5 1-25 uM)”.
With `Cc1cncc(-c2ccc3cccc(C(=O)Nc4cccc(CN5CCOCC5)n4)c3n2)c1` [Compound 244] the “% Fold Act. (percent maximum fold activation)” value was “A (Fold activation >200%)” and the “EC1.5 (concentration of test compound that results in 150% activation of SIRT1)” value was “A (EC1.5<1.0 uM)”.
In the case of `c1cncc(CNc2cccc3ccc(-c4ccc5c(c4)OCO5)nc23)c1` [Compound 164], the “EC1.5 (concentration of test compound that results in 150% activation of SIRT1)” value is reported as “C (EC1.5>25 uM)”.
In the case of `Cn1ccc(NC(=O)c2cccc3ccc(-c4cccc(C(F)(F)F)c4)nc23)n1` [Compound 272], the “% Fold Act. (percent maximum fold activation)” value is reported as “A (Fold activation >200%)” and the “EC1.5 (concentration of test compound that results in 150% activation of SIRT1)” value is reported as “A (EC1.5<1.0 uM)”.
With `O=C(Nc1cccnc1)c1cccc2ccc(-c3cccc(C(F)(F)F)c3)nc12` [Compound 31] the “% Fold Act. (percent maximum fold activation)” value was “A (Fold activation >200%)” and the “EC1.5 (concentration of test compound that results in 150% activation of SIRT1)” value was “A (EC1.5<1.0 uM)”.
In the case of `O=C(Nc1ccccc1)c1cccc2ccc(-c3cccc(OC(F)(F)F)c3)nc12` [Compound 11], the “% Fold Act. (percent maximum fold activation)” value is reported as “B (Fold Activation <200%)” and the “EC1.5 (concentration of test compound that results in 150% activation of SIRT1)” value is reported as “B (EC1.5 1-25 uM)”.
`O=C(Nc1ccncn1)c1cccc2cnc(-c3cccc(C(F)(F)F)c3)nc12` [Compound 271] was tested, and the “% Fold Act. (percent maximum fold activation)” value was “B (Fold Activation <200%)” and the “EC1.5 (concentration of test compound that results in 150% activation of SIRT1)” value was “B (EC1.5 1-25 uM)”.
`O=C(Nc1nccs1)c1ccc(F)c2ccc(-c3cccc(C(F)(F)F)c3)nc12` [Compound 66] was tested, and the “EC1.5 (concentration of test compound that results in 150% activation of SIRT1)” value was “C (EC1.5>25 uM)”.
In the case of `O=C(NC1CCCC1)c1cccc2ccc(-c3cccc(C(F)(F)F)c3)nc12` [Compound 40], the “EC1.5 (concentration of test compound that results in 150% activation of SIRT1)” value is reported as “C (EC1.5>25 uM)”.
For `FC(F)(F)c1cccc(-c2ccc3cccc(CNc4nccs4)c3n2)c1` [Compound 104], the “EC1.5 (concentration of test compound that results in 150% activation of SIRT1)” value was “C (EC1.5>25 uM)”.
With `O=C(NCc1ccccn1)c1cccc2ccc(-c3cccc(C(F)(F)F)c3)nc12` [Compound 35] the “% Fold Act. (percent maximum fold activation)” value was “B (Fold Activation <200%)” and the “EC1.5 (concentration of test compound that results in 150% activation of SIRT1)” value was “B (EC1.5 1-25 uM)”.
For `O=C(Nc1nc(CN2CCCC2)cs1)c1cccc2ccc(-c3cccc(C(F)F)c3)nc12` [Compound 261], the “% Fold Act. (percent maximum fold activation)” value was “A (Fold activation >200%)” and the “EC1.5 (concentration of test compound that results in 150% activation of SIRT1)” value was “A (EC1.5<1.0 uM)”.
`O=C(Nc1cccc2ccc(-c3ccc(F)c(C(F)(F)F)c3)nc12)c1ccncc1` [Compound 161] was tested, and the “EC1.5 (concentration of test compound that results in 150% activation of SIRT1)” value was “C (EC1.5>25 uM)”.
`Cc1noc(C)c1NC(=O)c1cccc2ccc(-c3cccc(C(F)(F)F)c3)nc12` [Compound 50] was tested, and the “EC1.5 (concentration of test compound that results in 150% activation of SIRT1)” value was “C (EC1.5>25 uM)”.
In the case of `O=C(Nc1nc(CN2CCOCC2)cs1)c1cccc2ccc(-c3cccnc3)nc12` [Compound 190], the “% Fold Act. (percent maximum fold activation)” value is reported as “A (Fold activation >200%)” and the “EC1.5 (concentration of test compound that results in 150% activation of SIRT1)” value is reported as “A (EC1.5<1.0 uM)”.
`O=C(Nc1cnccn1)c1cccc2ccc(-c3cccnc3)nc12` [Compound 181] was tested, and the “EC1.5 (concentration of test compound that results in 150% activation of SIRT1)” value was “C (EC1.5>25 uM)”.
With `O=C(Nc1cccc2ccc(-c3ccccc3OCCN3CCOCC3)nc12)c1cscn1` [Compound 175] the “% Fold Act. (percent maximum fold activation)” value was “A (Fold activation >200%)” and the “EC1.5 (concentration of test compound that results in 150% activation of SIRT1)” value was “B (EC1.5 1-25 uM)”.
For `O=C(Nc1ccc(CN2CCCC2)cn1)c1cccc2ccc(-c3cccc(C(F)(F)F)c3)nc12` [Compound 285], the “% Fold Act. (percent maximum fold activation)” value was “A (Fold activation >200%)” and the “EC1.5 (concentration of test compound that results in 150% activation of SIRT1)” value was “A (EC1.5<1.0 uM)”.
With `O=C(Nc1ccc(Cl)cn1)c1cccc2ccc(-c3cccc(C(F)(F)F)c3)nc12` [Compound 56] the “% Fold Act. (percent maximum fold activation)” value was “B (Fold Activation <200%)” and the “EC1.5 (concentration of test compound that results in 150% activation of SIRT1)” value was “A (EC1.5<1.0 uM)”.
For `O=C(Nc1ncnc2ccc(-c3cccc(OC(F)(F)F)c3)nc12)c1ccccn1` [Compound 194], the “% Fold Act. (percent maximum fold activation)” value was “A (Fold activation >200%)” and the “EC1.5 (concentration of test compound that results in 150% activation of SIRT1)” value was “A (EC1.5<1.0 uM)”.
For `O=C(Nc1ccncn1)c1cccc2ccc(-c3cccc(C(F)(F)F)c3)nc12` [Compound 41], the “% Fold Act. (percent maximum fold activation)” value was “A (Fold activation >200%)” and the “EC1.5 (concentration of test compound that results in 150% activation of SIRT1)” value was “A (EC1.5<1.0 uM)”.
With `O=C(Nc1ccc(OCC(O)CO)cc1)c1cccc2ccc(-c3cccc(C(F)(F)F)c3)nc12` (centres unmarked) [Compound 149] the “% Fold Act. (percent maximum fold activation)” value was “A (Fold activation >200%)” and the “EC1.5 (concentration of test compound that results in 150% activation of SIRT1)” value was “A (EC1.5<1.0 uM)”.
`O=C(Nc1cccc(CN2CCCC2)n1)c1cccc2ccc(-c3cccnc3)nc12` [Compound 230] was tested, and the “% Fold Act. (percent maximum fold activation)” value was “A (Fold activation >200%)” and the “EC1.5 (concentration of test compound that results in 150% activation of SIRT1)” value was “B (EC1.5 1-25 uM)”.
